These results are taken from patent publication US5403824A, “Methods for the treatment of osteoporosis” (The Procter & Gamble Company, priority 1993, dated 1995).

For test [1], the system named is human subject with postmenopausal osteoporosis or low bone mass. Briefly: treatment of human subject with osteoporosis, vertebral density by dual-energy photon absorptiometry. The format is in vivo. The protocol: A human subject weighing about 60 kg (132 lbs), suffering from postmenopausal osteoporosis, is treated by a method of this invention. Specifically, for two years, the enkephalin-degrading enzyme inhibitor DL-3-mercapto-2-benzylpropanoylglycine is administered orally, in a cyclical regimen, where each cycle consists of an active period of 28 days during which a tablet containing 160 mg of said inhibitor is administered each day, followed by a non-active period of 28 days during which the subject receives a daily supplement of calcium (1,000 mg/day), with repeat of cycle.
A human subject weighing about 60 kg (132 lbs), suffering from postmenopausal osteoporosis, is treated by a method of this invention. Specifically, for two years, the compound H-Tyr-D-Ala-Gly-Phe-D-Leu-OH ("DADLE") is administered to the subject, in a cyclical regimen, where each cycle consists of an active period of 28 days during which a solution containing 30 mg of DADLE is administered intravenously every day, followed by a non-active period of 28 days during which the patient receives a daily supplement of calcium (1,000 mg/day), with repeat of cycle.
A human subject weighing about 60 kg (132 lbs), suffering from postmenopausal osteoporosis, is treated by a method of this invention. Specifically, for two years, an enkephalin of the formula Tyr-D-Cys(S-t-butylthioether)-Gly-Phe-Leu-Thr(O-t-butylether) ("BUBUC") is administered to the subject, in a cyclical regimen, where each cycle consists of an active period of 28 days during which a solution containing 30 mg of BUBUC is intravenously administered each day, followed by a non-active period of 28 days during which the patient receives a daily supplement of calcium (1,000 mg/day), with repeat of cycle.
A human subject weighing about 60 kg (132 lbs), suffering from postmenopausal osteoporosis, is treated by a method of this invention. Specifically, for two years, the enkephalin secretagogue Tyr-Arg^1, is administered to the subject, in a cyclical regimen, where each cycle consists of an active period of 28 days during which a solution containing 30 mg of Tyr-Arg is intravenously administered each day, followed by a non-active period of 28 days during which the subject receives a daily supplement of calcium (1,000 mg/day), with repeat of cycle. […]
A human subject weighing about 60 kg (132 lbs), suffering from postmenopausal osteoporosis, is treated by a method of this invention. Specifically, each day for five years, the subject is administered 3 tablets, comprised as follows.
A human subject weighing about 60 kg (132 lbs) is evaluated approximately four years after spontaneous menopause, and is found to have low bone mass. The subject is then treated by a method of this invention to treat osteoporosis. Specifically, once each month for five years, the subject is administered, via intravenous injection, 5 ml of a solution comprised as follows.

The subject of test [2] is Rat osteoblast-like cells (ROS 17/2.8). As to the kind of experiment: [3H]-thymidine incorporation, proliferation of osteoblast-like cells. The format is cell-based. To be noted: ROS 17/2.8, 18 hrs incubation, 2 hrs pulse. The text has this:
Stimulation of osteoblast-like cell proliferation can be measured according to several art-recognized in vitro models. One such model is described in European Patent Publication No. 384,731, by Rodan et al, published Aug. 29, 1990, which is incorporated herein by reference. (Applicants have modified this method by reducing regent volumes to one-quarter those described and by utilizing Dulbecco's Modified eagle's Medium (DMEM).) In this model, proliferation (division) of, for example, rat osteoblast-like cells (rat osteosarcoma (ROS) cells, rat calvaria cells, etc.) is observed by measuring the amount of radiolabeled thymidine ([^3 H]thymidine) incorporated by these cells. ([^3 H]thymidine is "incorporated" by cellular DNA being synthesized as a result of cell proliferation.) The greater the level of [^3 H]thymidine measured, the greater the amount of proliferation of the osteoblast cells.
More specifically, a test sample (comprised of a test compound and osteoblast-like cells) and a control sample (comprised of only osteoblast-like cells) are pulsed with [^3 H]thymidine. The amount of [^3 H]thymidine incorporated by the cells is measured using a direct beta counter.
Rat osteoblast-like cells (ROS 17/2.8) are plated at 4×10^3 cells/well in a 96-well plate in Dulbecco's Modified eagle's Medium supplemented with 2% (v/v) Fetal Bovine Serum, and incubated for 6 hrs. Control (serum-free) medium and test medium (test sample and serum-free medium) are then added to the cells and this combination is incubated for 18 hrs. The cells are then pulsed with [^3 H]-thymidine (1 μCi/well) for 2 hrs. The medium is then removed, the cells are harvested onto glass fibre filters and the amount of [^3 H]-thymidine (counts per minute per well) incorporated into DNA is then determined using a direct beta counter. Values for control groups are then compared to values for treated groups.
The compound H-Tyr-D-Ala-Gly-Phe-D-Leu-OH ("DADLE") is screened to determine whether it stimulates proliferation of osteoblast-like cells. […] The medium is then removed, the cells are harvested onto glass fibre filters, and the amount of ^3 H-thymidine (counts per minute per well) incorporated into DNA is determined using a direct beta counter. […]
The compound Tyr-D-Cys(S-t-butylthioether)-Gly-Phe-Leu-Thr(O-t-butylether) ("BUBUC") is screened to determine whether it stimulates proliferation of osteoblast-like cells. […] The medium is then removed, the cells are harvested onto glass fibre filters, and the amount of ^3 H-thymidine (counts per minute per well) incorporated into DNA is determined using a direct beta counter. […]
(Incorporation of labelled thymidine or its analogues reports DNA synthesis.)

For a further test, the target named is T1, delta opioid receptor (Cavia porcellus, UniProt A0A286XTF2).
T1 construct: A preferred source of delta opioid receptors is guinea pig brain; from tissue; host or cells: guinea pig brain
T1 sequence (A0A286XTF2 1-366): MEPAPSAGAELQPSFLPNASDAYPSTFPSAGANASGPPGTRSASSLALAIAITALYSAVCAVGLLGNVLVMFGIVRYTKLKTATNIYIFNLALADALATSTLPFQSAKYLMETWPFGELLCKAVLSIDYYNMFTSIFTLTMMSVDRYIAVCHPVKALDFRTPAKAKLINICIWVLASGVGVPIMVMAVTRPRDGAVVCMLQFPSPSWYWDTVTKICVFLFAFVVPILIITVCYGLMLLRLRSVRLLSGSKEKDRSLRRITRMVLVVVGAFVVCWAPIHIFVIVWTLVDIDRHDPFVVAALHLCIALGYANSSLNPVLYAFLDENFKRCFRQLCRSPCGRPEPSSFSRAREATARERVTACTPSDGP
Briefly: inhibition of [3H]DPDPE binding, method of Goldstein et al. Also noted: species or system guinea pig. To be noted: radioligand [3H]DPDPE. The text has this:
Affinity for delta opioid receptors can be measured by any of several art-recognized in vitro models. One such model is described by Goldstein et al., and is discussed above. According to this model, a test compound is screened for its ability to inhibit binding of a delta-selective radiolabeled ligand ("delta-selective radiolabeled ligand" refers to a radiolabeled compound that is known to have selective affinity to delta opioid receptors) to delta opioid receptor binding sites. More specifically, this in vitro model compares test samples (comprising a delta-selective radiolabeled ligand ("hot ligand"); the non-radiolabeled equivalent to the "hot ligand" ("cold ligand"); test compound at varying concentrations in each test sample; and delta opiate receptor material) and a control sample (comprising hot ligand; cold ligand; and delta opiate receptor material).
Following the protocol set forth by Goldstein et al., the samples are assayed for relative radioactivity.
In assessing a compound's in vitro affinity for delta opioid receptors according to the method described by Goldstein et al., the delta-selectiveradiolabeled ligand ("hot ligand") is preferrably [^3 H]Tyr-D-Pen-Gly-Phe-D-Pen-OH ("[^3 H]-DPDPE"). The preferred "cold ligand" is therefore H-Tyr-D-Pen-Gly-Phe-D-Pen-OH ("cold DPDPE" or "DPDPE"). A preferred source of delta opioid receptors is guinea pig brain. […]

The next test has as its system osteoblast-like cells. As to the kind of experiment: enkephalin secretion from osteoblast-like cells, RIA of immunoreactive enkephalin. The format is cell-based. The conditions noted are these: 48 hrs incubation. Here is the method: In vitro release of enkephalin can be determined using any of several art-recognized in vitro models. One such model is described by Rosen et al., "Regulated Expression of Proenkephalin A in Normal Lymphocytes", 143 J. Immunol. 3703-07 (1989), which is incorporated herein by reference. In this model, "target cells" (preferably bone-derived cells, such as human osteoblast-like cells, rat calvaria cells, rat osteosarcoma cells, etc.) are incubated in tissue culture medium in the presence (test sample) and absence (control sample) of a test agent.
Osteoblast-like cells are incubated in tissue culture medium in the presence (test samples) and absence of the compound Tyr-Arg for 48 hrs. Peptides are extracted from packed cells by homogenization in 10 volumes of 0.2M HCl, heated to 100° C. for 3 min. and centrifuged at 15,000×g for 30 min. at 4° C. An aliquot of the resulting supernatant is purified on a C18 octadecyl Ampere minicolumn using a non-polar extraction procedure as recommended by the manufacturer of the columns. Another portion of the supernatant is lyophilized and reconstituted in 1.0 ml of 50 mM Tris-HCl (pH 8.0), 2 mM CaCl2 containing 20 µg/ml trypsin L-p-tosylamino-2-phenylethyl chloromethyl ketone. After trypsin digestion (2 hr at […]), samples are heated to 100° C. for 20 min., cooled and then treated with carboxypeptidaseB (0.2 μg/ml) for 1 hr. at 37° C. […]

Where [3] appears, read: 30 mg intravenously daily (substitutes at comparable levels), 28 days active / 28 days calcium, two years.

Square brackets hold non-standard residues; d marks the D form. Peptide text beside a SMILES is read from it. * marks the point of attachment. tBu = CC(C)(C)*

`CC(C)C[C@H](NC(=O)[C@H](Cc1ccccc1)NC(=O)CNC(=O)[C@@H](CSC(C)(C)C)NC(=O)[C@@H](N)Cc1ccc(O)cc1)C(=O)N[C@H](C(=O)O)[C@@H](C)OC(C)(C)C` [BUBUC, Tyr-D-Cys(S-t-butylthioether)-Gly-Phe-Leu-Thr(O-t-butylether)] (H-Y[dC](tBu)GFLT(tBu)-OH): the entries for the “density of vertebrae / bone mass” value in test [1] (setting [3]) and in test [1] (Example 8: 5 ml of 30.0 mg/ml solution i.v. once each month for five years) were “an increase in bone mass” and “no significant loss in bone mass has occurred”, respectively. In addition, the “[3H]-thymidine incorporation (proliferation) vs control” value in test [2] is given as “significantly stimulated proliferation of the osteoblast-like cells”. The “in vitro delta opioid receptor affinity (IC50 ≤1000 times the IC50 of non-radiolabeled DPDPE)” value at delta opioid receptor is listed as “significant in vitro delta opioid receptor affinity”.
As for `N=C(N)NCCC[C@H](NC(=O)[C@@H](N)Cc1ccc(O)cc1)C(=O)O` [Tyr-Arg], the “immunoreactive enkephalin, enkephalin secretion vs control” value with osteoblast-like cells was “stimulates enkephalin secretion by osteoblast-like cells”. Moreover, in test [1] (setting [3]), the “density of vertebrae / bone mass” value is “an increase in bone mass”. For the same compound, the “[3H]-thymidine incorporation (proliferation) vs control” value in test [2] is reported as “significantly stimulated proliferation of the osteoblast-like cells”.
